Experiments:
Sp2/0 cells [1] = assay: Sialylation of human IgG1 antibody (golimumab) produced in Sp2/0 cells in perfusion culture supplemented with kifunensine; glycan analysis by HILIC; format: cell-based, Murine; conditions: IgG1 (golimumab) from Sp2/0 cells
Description: (§1) Murine Sp2/0 cells transfected with expression vectors encoding SEQ ID NOs: 1 and 2 (which correspond to the heavy and light chains respectively of the human anti-TNFα IgG1 monoclonal antibody, golimumab) were cultured in perfusion bioreactors for 30 days under standard operating parameters. To examine the effect of kifunensine on the sialylation levels of the resulting IgG1, the perfusion cultures were supplemented with either 3, 6, 9, or 12 μg/L kifunensine (corresponding to 13 nM, 26 nM, 39 nM or 52 nM). A control culture was also maintained under the same conditions albeit in the absence of kifunensine.
(§2) On culture day 18, samples were taken from the perfusion bioreactors and the percentage sialylation of the IgG1 antibodies was determined by glycan analysis. Briefly, antibodies were first purified using protein A chromatography, glycans were then enzymatically released from the antibody, fluorescently labelled with 2-aminobenzamide and analysed using hydrophilic interaction chromatography (HILIC) based methods.

Sp2/0 cells [2] = assay: Cell viability of Sp2/0 perfusion cultures supplemented with kifunensine; format: cell-based, Murine; conditions: Sp2/0 perfusion cultures, 3, 6, 9 or 12 μg/L kifunensine (13, 26, 39 or 52 nM), 30 days
Description: as §1

CHO cells [3] = assay: Fc-glycan sialylation of human IgG2 antibody (denosumab) produced in CHO cells in fed-batch culture supplemented with kifunensine; format: cell-based, Chinese hamster; conditions: IgG2 (denosumab) from CHO cells, day 20, FIG. 2
Description: as §2
(§3) CHO cells transfected with expression vectors encoding SEQ ID NOs: 3 and 4 (which correspond to the heavy and lights chains respectively of the human anti-RANKL IgG2 monoclonal antibody, denosumab) were cultured in bioreactors using standard fed-batch methods. To examine the effects of kifunensine on the Fc-glycan sialylation levels of the resulting IgG2, the cultures were supplemented with either 30, 40, 50 or 60 nM kifunensine on day 3 of the culture. A control culture was also maintained under the same conditions albeit in the absence of kifunensine.
On day 20, samples were taken from bioreactors and the percentage Fc-glycan sialylation of the IgG2 antibodies was determined as described in Example 1.

CHO cells [4] = assay: Cell viability of CHO fed-batch cultures supplemented with kifunensine; format: cell-based, Chinese hamster; conditions: CHO fed-batch cultures, 30, 40, 50 or 60 nM kifunensine added on day 3
Description: as §3

CHO cells [5] = assay: Glycosylation profile of recombinant human EPO produced in CHO cells in perfusion culture supplemented with kifunensine; format: cell-based, Chinese hamster; conditions: CHO perfusion culture 18 days, 12 μg/L kifunensine from day 0
Description: CHO cells transfected with expression vectors encoding recombinant human EPO (UniProt Accession No. P01588, Sequence Version 1, Entry Version 195) are cultured in perfusion bioreactors for 18 days under standard operating parameters. The culture medium is supplemented with 12 μg/L kifunensine from day 0.
Recombinant human EPO produced during the culture period is harvested throughout the production phase and at the end of the culture period, a sample is obtained to determine the glycosylation profile. The resultant recombinant human EPO has increased mannosylation and sialylation compared to that produced in cultures without kifunensine.

With `O=C1N[C@@H]2[C@@H](O)[C@@H](O)[C@H](O)[C@@H](CO)N2C1=O` [kifunensine, (5R,6R,7S,8R,8aS)-6,7,8-trihydroxy-5-(hydroxymethyl)-1,5,6,7,8,8a-hexahydroimidazo[1,2-a]pyridine-2,3-dione] the “kifunensine concentration giving peak sialylation levels” value (Sp2/0 cells [1]; culture day 18, FIG. 1) was 12 µg/L, the “kifunensine concentration at which an increase in sialylation compared to control was evident” value (Sp2/0 cells [1]; culture day 18, FIG. 1, particularly 9 and 12 μg/L) was no less than 6 µg/L and the “kifunensine concentration giving peak sialylation levels (molar)” value (Sp2/0 cells [1]; culture day 18, conversion of 12 μg/L) was roughly 52 nM. For the same compound, the “impact on cell viability” value (Sp2/0 cells [2]) was “No significant impact on cell viability”, the “kifunensine concentration at which an increase in Fc-glycan sialylation compared to control was evident” value (CHO cells [3]) was greater than 40 nM and the “kifunensine concentration giving peak Fc-glycan sialylation” value (CHO cells [3]) was 60 nM. The “impact on cell viability” value (CHO cells [4]) was “No significant impact on cell viability”, the “mannosylation of recombinant human EPO compared to cultures without kifunensine” value (CHO cells [5]) was “increased” and the “sialylation of recombinant human EPO compared to cultures without kifunensine” value (CHO cells [5]) was “increased”.

Reference: patent US20230049145A1, “GLYCOSYLATED POLYPEPTIDES” (FRESENIUS KABI DEUTSCHLAND GMBH, priority 2019, published 2023)
